According to patent publication US6914045B2, “Glycopeptide antibiotics” (Wyeth Holdings Corporation, priority 2001, dated 2005):
Values after ≈ are worked out from the molar mass of the structure shown.

Key:
Assay in all cases: in vitro antibacterial evaluation, MIC by broth dilution
Assay type in all cases: cell-based
Enterococcus sp. = conditions: broth dilution, 18 hours at 35° C.
Outline: (§1)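 Test organisms, which included recent clinical isolates resistant to methicillin, penicillin and/or vancomycin, were inoculated at 5×10^5 CFU/mL into Muller-Hinton II […] containing antibiotic at 64-0.06 μg/mL. Minimum inhibitory concentrations were then read as the lowest level inhibiting growth.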

Streptococcus sp. = conditions: broth dilution, 18 hours at 35° C.
Outline: as §1

Staphylococcus sp. = conditions: broth dilution, 18 hours at 35° C.
Outline: as §1

Escherichia coli = conditions: 18 hours at 35° C.

MIC Enterococcus avium (GC 4558) (Enterococcus sp.): 32 µg/mL (≈ 23 µM)
MIC Enterococcus faecalis (ATCC 29212) (Enterococcus sp.): 32 µg/mL (≈ 23 µM)
MIC Enterococcus faecalis (GC 2242) (Enterococcus sp.): 32 µg/mL (≈ 23 µM)
MIC Enterococcus faecalis (GC 2691) (Enterococcus sp.): 32 µg/mL (≈ 23 µM)
MIC Enterococcus faecalis (GC 3059) (Enterococcus sp.): 64 µg/mL (≈ 46 µM)
MIC Enterococcus faecalis (GC 4552) (Enterococcus sp.): 32 µg/mL (≈ 23 µM)
MIC Enterococcus faecalis (GC 4553) (Enterococcus sp.): 32 µg/mL (≈ 23 µM)
MIC Enterococcus faecalis (GC 4554) (Enterococcus sp.): 64 µg/mL (≈ 46 µM)
MIC Enterococcus faecalis (GC 6189) (Enterococcus sp.): 32 µg/mL (≈ 23 µM)
MIC Enterococcus faecium (GC 2243) (Enterococcus sp.): 32 µg/mL (≈ 23 µM)
MIC Enterococcus faecium (GC 4556) (Enterococcus sp.): 32 µg/mL (≈ 23 µM)
MIC Enterococcus faecium (GC 4557) (Enterococcus sp.): 4 µg/mL (≈ 2.87 µM)
MIC Enterococcus faecalis (ATCC 29212) (Enterococcus sp.; strain ATCC 29212): 32 µg/mL (≈ 23 µM)
MIC Enterococcus faecium (GC 2243) (Enterococcus sp.; strain GC 2243): 32 µg/mL (≈ 23 µM)
MIC Enterococcus faecalis (GC 4552) (Enterococcus sp.; strain GC 4552): 32 µg/mL (≈ 23 µM)
MIC Enterococcus faecalis (GC 4553) (Enterococcus sp.; strain GC 4553): 32 µg/mL (≈ 23 µM)
MIC Enterococcus faecalis (GC 4554) (Enterococcus sp.; strain GC 4554): 64 µg/mL (≈ 46 µM)
MIC Enterococcus faecium (GC 4556) (Enterococcus sp.; strain GC 4556): 32 µg/mL (≈ 23 µM)
MIC Enterococcus faecium (GC 4557) (Enterococcus sp.; strain GC 4557): 4 µg/mL (≈ 2.87 µM)
MIC Enterococcus avium (GC 4558) (Enterococcus sp.; strain GC 4558): 32 µg/mL (≈ 23 µM)
MIC Enterococcus faecalis (GC 6189) (Enterococcus sp.; strain GC 6189): 32 µg/mL (≈ 23 µM)
MIC Enterococcus faecalis (GC 2242) (Enterococcus sp.; inoculum 5×10^5 CFU/mL, strain GC 2242): 32 µg/mL (≈ 23 µM)
MIC Enterococcus faecalis (GC 2691) (Enterococcus sp.; inoculum 5×10^5 CFU/mL, strain GC 2691): 32 µg/mL (≈ 23 µM)
MIC Enterococcus faecalis (GC 3059) (Enterococcus sp.; inoculum 5×10^5 CFU/mL, strain GC 3059): 64 µg/mL (≈ 46 µM)
MIC Streptococcus agalactiae (GC 4564) (Streptococcus sp.): 4 µg/mL (≈ 2.87 µM)
MIC Streptococcus pneumoniae (ATCC 6301) (Streptococcus sp.): 1 µg/mL (≈ 0.719 µM)
MIC Streptococcus pneumoniae (GC 1894) (Streptococcus sp.): 0.5 µg/mL (≈ 0.359 µM)
MIC Streptococcus pneumoniae (GC 4565) (Streptococcus sp.): 1 µg/mL (≈ 0.719 µM)
MIC Streptococcus pyogenes (GC 4563) (Streptococcus sp.): 2 µg/mL (≈ 1.44 µM)
MIC Streptococcus pneumoniae (ATCC 6301) (Streptococcus sp.; inoculum 5×10^5 CFU/mL, strain ATCC 6301): 1 µg/mL (≈ 0.719 µM)
MIC Streptococcus pneumoniae (GC 1894) (Streptococcus sp.; inoculum 5×10^5 CFU/mL, strain GC 1894): 0.5 µg/mL (≈ 0.359 µM)
MIC Streptococcus pyogenes (GC 4563) (Streptococcus sp.; inoculum 5×10^5 CFU/mL, strain GC 4563): 2 µg/mL (≈ 1.44 µM)
MIC Streptococcus agalactiae (GC 4564) (Streptococcus sp.; inoculum 5×10^5 CFU/mL, strain GC 4564): 4 µg/mL (≈ 2.87 µM)
MIC Streptococcus pneumoniae (GC 4565) (Streptococcus sp.; inoculum 5×10^5 CFU/mL, strain GC 4565): 1 µg/mL (≈ 0.719 µM)
MIC Coagulase Negative Staphylococcus (GC 4547) (Staphylococcus sp.): 4 µg/mL (≈ 2.87 µM)
MIC Coagulase Negative Staphylococcus (GC 4548) (Staphylococcus sp.): 2 µg/mL (≈ 1.44 µM)
MIC Coagulase Negative Staphylococcus (GC 4549) (Staphylococcus sp.): 2 µg/mL (≈ 1.44 µM)
MIC Coagulase Negative Staphylococcus (GC 4551) (Staphylococcus sp.): 4 µg/mL (≈ 2.87 µM)
MIC Coagulase Negative Staphylococcus (GC 6257) (Staphylococcus sp.): 2 µg/mL (≈ 1.44 µM)
MIC Staphylococcus aureus (ATCC 29213) (Staphylococcus sp.): 8 µg/mL (≈ 5.75 µM)
MIC Staphylococcus aureus (GC 1131) (Staphylococcus sp.): 8 µg/mL (≈ 5.75 µM)
MIC Staphylococcus aureus (GC 3051) (Staphylococcus sp.): 8 µg/mL (≈ 5.75 µM)
MIC Staphylococcus aureus (GC 3053) (Staphylococcus sp.): 16 µg/mL (≈ 11.5 µM)
MIC Staphylococcus aureus (GC 4541) (Staphylococcus sp.): 8 µg/mL (≈ 5.75 µM)
MIC Staphylococcus aureus (GC 4542) (Staphylococcus sp.): 1 µg/mL (≈ 0.719 µM)
MIC Staphylococcus aureus (GC 4544) (Staphylococcus sp.): 8 µg/mL (≈ 5.75 µM)
MIC Staphylococcus aureus (GC 4545) (Staphylococcus sp.): 8 µg/mL (≈ 5.75 µM)
MIC Staphylococcus aureus-SMITH (GC 4543) (Staphylococcus sp.): 4 µg/mL (≈ 2.87 µM)
MIC Staphylococcus aureus (ATCC 29213) (Staphylococcus sp.; strain ATCC 29213): 8 µg/mL (≈ 5.75 µM)
MIC Staphylococcus aureus (GC 1131) (Staphylococcus sp.; strain GC 1131): 8 µg/mL (≈ 5.75 µM)
MIC Staphylococcus aureus (GC 3051) (Staphylococcus sp.; strain GC 3051): 8 µg/mL (≈ 5.75 µM)
MIC Staphylococcus aureus (GC 3053) (Staphylococcus sp.; strain GC 3053): 16 µg/mL (≈ 11.5 µM)
MIC Staphylococcus aureus (GC 4541) (Staphylococcus sp.; strain GC 4541): 8 µg/mL (≈ 5.75 µM)
MIC Staphylococcus aureus (GC 4542) (Staphylococcus sp.; strain GC 4542): 1 µg/mL (≈ 0.719 µM)
MIC Staphylococcus aureus-SMITH (GC 4543) (Staphylococcus sp.; strain GC 4543): 4 µg/mL (≈ 2.87 µM)
MIC Staphylococcus aureus (GC 4544) (Staphylococcus sp.; strain GC 4544): 8 µg/mL (≈ 5.75 µM)
MIC Staphylococcus aureus (GC 4545) (Staphylococcus sp.; strain GC 4545): 8 µg/mL (≈ 5.75 µM)
MIC Coagulase Negative Staphylococcus (GC 4547) (Staphylococcus sp.; strain GC 4547): 4 µg/mL (≈ 2.87 µM)
MIC Coagulase Negative Staphylococcus (GC 4548) (Staphylococcus sp.; strain GC 4548): 2 µg/mL (≈ 1.44 µM)
MIC Coagulase Negative Staphylococcus (GC 4549) (Staphylococcus sp.; strain GC 4549): 2 µg/mL (≈ 1.44 µM)
MIC Coagulase Negative Staphylococcus (GC 4551) (Staphylococcus sp.; strain GC 4551): 4 µg/mL (≈ 2.87 µM)
MIC Coagulase Negative Staphylococcus (GC 6257) (Staphylococcus sp.; strain GC 6257): 2 µg/mL (≈ 1.44 µM)
MIC Escherichia coli (ATCC 25922) (Escherichia coli): >64 µg/mL
MIC Escherichia coli (GC 4559) (Escherichia coli): 64 µg/mL (≈ 46 µM)
MIC Escherichia coli (GC 4560) (Escherichia coli): 2 µg/mL (≈ 1.44 µM)
Compound: CC(c1ccccc1)C1NC(=O)CNC(=O)C(CO)NC(=O)C(C(O)C2CNC(=N)N2C2OC(CO)C(O)C(O)C2O)NC(=O)C(C(O)C2CNC(=N)N2)NC(=O)C(Cc2ccc(OC3OC(CO)C(OC4OC(COCc5cccs5)C(O)C(O)C4O)C(O)C3O)cc2)NC1=O (stereo not shown) [Example 244]
MIC Staphylococcus haemolyticus (GC 4546) (Staphylococcus sp.): 4 µg/mL (≈ 2.87 µM)
MIC Staphylococcus haemolyticus (GC 4546) (Staphylococcus sp.; strain GC 4546): 4 µg/mL (≈ 2.87 µM)
